{
  "source": "patent US10722501B2",
  "about": "(BAYER AKTIENGESELLSCHAFT, priority 2016, dated 2020)",
  "note": "pIC50: −log10 of the molar value.",
  "data": [
    {"target": "T1, recombinant full-length human prolyl endopeptidase (PREP) (Homo sapiens, UniProt P48147)", "T1 construct": "To recombinant full-length human prolyl endopeptidase (PREP, R&D-Systems, 4308-SE); purchased R&D-Systems 4308-SE", "T1 sequence (P48147 1-710)": "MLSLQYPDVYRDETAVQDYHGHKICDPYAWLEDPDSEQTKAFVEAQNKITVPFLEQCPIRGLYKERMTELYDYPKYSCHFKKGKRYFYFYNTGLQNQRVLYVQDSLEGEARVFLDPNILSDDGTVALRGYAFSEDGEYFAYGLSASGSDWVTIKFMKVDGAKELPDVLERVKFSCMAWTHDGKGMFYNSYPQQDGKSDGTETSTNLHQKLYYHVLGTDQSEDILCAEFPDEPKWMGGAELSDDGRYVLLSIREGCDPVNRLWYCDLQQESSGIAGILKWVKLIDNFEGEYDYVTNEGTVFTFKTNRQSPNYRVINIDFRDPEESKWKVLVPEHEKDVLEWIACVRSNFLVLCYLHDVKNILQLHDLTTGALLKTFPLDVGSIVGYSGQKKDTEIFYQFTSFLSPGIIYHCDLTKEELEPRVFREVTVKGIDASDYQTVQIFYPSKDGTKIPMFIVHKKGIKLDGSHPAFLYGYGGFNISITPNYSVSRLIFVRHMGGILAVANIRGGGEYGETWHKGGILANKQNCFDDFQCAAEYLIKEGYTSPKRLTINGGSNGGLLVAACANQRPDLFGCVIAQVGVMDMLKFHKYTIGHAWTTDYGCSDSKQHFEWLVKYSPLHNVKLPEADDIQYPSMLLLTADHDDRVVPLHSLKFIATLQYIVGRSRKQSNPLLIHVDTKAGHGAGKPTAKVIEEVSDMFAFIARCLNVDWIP", "experiment": "Biochemical human prolyl endopeptidase (PREP) assay with fluorescently labelled substrate", "settings": "substrate Z-Gly-Pro-AMC 50 μM, 32° C., 60 min; some as mean values from multiple independent determinations", "outline": "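0.4 nM (final, example) recombinant PREP in pH 7.5 Tris buffer with EDTA, GSH, BSA and Brij-35; compounds at 1 nM to 30 μM. Reaction started with 50 μM Z-Gly-Pro-AMC and followed by fluorescence (ex 360/em 465 nm) at 32° C for 60 min. IC50 interpolated from percent activity based on initial slopes.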", "values": [
      {"compound": "O=C(C1CCc2nn(Cc3ccc(F)c(Cl)c3)c(=O)n21)N1CCC(F)(F)C1", "note": "(racemic) [Example 168, (5RS)-2-(3-Chloro-4-fluorobenzyl)-5-[(3,3-difluoropyrrolidin-1-yl)carbonyl]-2,5,6,7-tetrahydro-3H-pyrrolo[2,1-c][1,2,4]triazol-3-one]", "pIC50": 8.39},
      {"compound": "O=C(C1CCc2nn(Cc3ccc(Cl)nc3)c(=O)n21)N1CC(F)C1", "note": "(racemic) [Example 169, (5RS)-2-[(6-Chloropyridin-3-yl)methyl]-5-[(3-fluoroazetidin-1-yl)carbonyl]-2,5,6,7-tetrahydro-3H-pyrrolo[2,1-c][1,2,4]triazol-3-one]", "pIC50": 7.50},
      {"compound": "O=C(C1CCc2nn(Cc3ccc(C(F)(F)F)nc3)c(=O)n21)N1CC(F)C1", "note": "(racemic) [Example 170, (5RS)-5-[(3-Fluoroazetidin-1-yl)carbonyl]-2-{[6-(trifluoromethyl)pyridin-3-yl]methyl}-2,5,6,7-tetrahydro-3H-pyrrolo[2,1-c][1,2,4]triazol-3-one]", "pIC50": 7.05},
      {"compound": "O=C(C1CCc2nn(Cc3ccc(F)c(Cl)c3)c(=O)n21)N1CC(F)C1", "note": "(racemic) [Example 171, (5RS)-2-(3-Chloro-4-fluorobenzyl)-5-[(3-fluoroazetidin-1-yl)carbonyl]-2,5,6,7-tetrahydro-3H-pyrrolo[2,1-c][1,2,4]triazol-3-one]", "pIC50": 8.20},
      {"compound": "O=C(C1CCc2nn(Cc3ccc(Cl)nc3)c(=O)n21)N1C[C@@H](F)[C@@H](F)C1", "note": "(mixture of isomers) [Example 172, (5RS)-2-[(6-Chloropyridin-3-yl)methyl]-5-{[(3R,4S)-3,4-difluoropyrrolidin-1-yl]carbonyl}-2,5,6,7-tetrahydro-3H-pyrrolo[2,1-c][1,2,4]triazol-3-one]", "pIC50": 8.20},
      {"compound": "O=C(C1CCc2nn(Cc3ccc(C(F)(F)F)nc3)c(=O)n21)N1C[C@@H](F)[C@@H](F)C1", "note": "(mixture of isomers) [Example 173, (5RS)-5-{[(3R,4S)-3,4-Difluoropyrrolidin-1-yl]carbonyl}-2-{[6-(trifluoromethyl)pyridin-3-yl]methyl}-2,5,6,7-tetrahydro-3H-pyrrolo[2,1-c][1,2,4]triazol-3-one]", "pIC50": 8.23},
      {"compound": "O=C(C1CCc2nn(Cc3ccc(F)c(Cl)c3)c(=O)n21)N1C[C@@H](F)[C@@H](F)C1", "note": "(mixture of isomers) [Example 174, (5RS)-2-(3-Chloro-4-fluorobenzyl)-5-{[(3R,4S)-3,4-difluoropyrrolidin-1-yl)carbonyl]-2,5,6,7-tetrahydro-3H-pyrrolo[2,1-c][1,2,4]triazol-3-one]", "pIC50": 8.94},
      {"compound": "O=C(C1CCc2nn(Cc3ccnc(C(F)(F)F)c3F)c(=O)n21)N1C[C@@H](F)[C@@H](F)C1", "note": "(mixture of isomers) [Example 175, (5RS)-5-{[(3R,4S)-3,4-Difluoropyrrolidin-1-yl]carbonyl}-2-{[3-fluoro-2-(trifluoromethyl)pyridin-4-yl]methyl}-2,5,6,7-tetrahydro-3H-pyrrolo[2,1-c][1,2,4]triazol-3-one]", "pIC50": 8.15},
      {"compound": "O=C(C1CCc2nn(Cc3ccnc(C(F)(F)F)c3F)c(=O)n21)N1CCC(F)(F)C1", "note": "(racemic) [Example 181, (5RS)-5-[(3,3-Difluoropyrrolidin-1-yl)carbonyl]-2-{[3-fluoro-2-(trifluoromethyl)pyridin-4-yl]methyl}-2,5,6,7-tetrahydro-3H-pyrrolo[2,1-c][1,2,4]triazol-3-one]", "pIC50": 7.61},
      {"compound": "O=C(C1CCc2nn(Cc3ccnc(C(F)(F)F)c3F)c(=O)n21)N1CC(F)C1", "note": "(racemic) [Example 182, (5RS)-5-[(3-Fluoroazetidin-1-yl)carbonyl]-2-{[3-fluoro-2-(trifluoromethyl)pyridin-4-yl]methyl}-2,5,6,7-tetrahydro-3H-pyrrolo[2,1-c][1,2,4]triazol-3-one]", "pIC50": 7.43},
      {"compound": "O=C([C@@H]1CCCc2nn(Cc3ccnc(C(F)(F)F)c3F)c(=O)n21)N1CCC2CC21", "note": "(mixture of isomers) [Example 205, (5S)-5-[(1 RS,5SR)-2-Azabicyclo[3.1.0]hex-2-ylcarbonyl]-2-{[3-fluoro-2-(trifluoromethyl)pyridin-4-yl]methyl}-5,6,7,8-tetrahydro[1,2,4]triazolo[4,3-a]pyridin-3(2H)-one]", "pIC50": 8.00},
      {"compound": "CC1CCC(C(=O)N2CC[C@H](F)C2)n2c1nn(Cc1ccc(C(F)(F)F)nc1)c2=O", "note": "(mixture of isomers) [Example 220, (5RS,8RS)-5-{[(3S)-3-Fluoropyrrolidin-1-yl]carbonyl}-8-methyl-2-{[6-(trifluoromethyl)pyridin-3-yl]methyl}-5,6,7,8-tetrahydro[1,2,4]triazolo[4,3-a]pyridin-3(2H)-one]", "pIC50": 8.82},
      {"compound": "Cc1ccc(Cn2nc3n(c2=O)C(C(=O)N2CCCC2)CCC3C)cc1", "note": "(racemic) [Example 223, (5RS,8RS)-8-Methyl-2-(4-methylbenzyl)-5-(pyrrolidin-1-ylcarbonyl)-5,6,7,8-tetrahydro[1,2,4]triazolo[4,3-a]pyridin-3(2H)-one]", "pIC50": 9.38},
      {"compound": "Cc1ccc(Cn2nc3n(c2=O)C(C(=O)N2CCCC2)CC(C)C3)cc1", "note": "(racemic) [Example 224, (5RS,7RS)-7-Methyl-2-(4-methylbenzyl)-5-(pyrrolidin-1-ylcarbonyl)-5,6,7,8-tetrahydro[1,2,4]triazolo[4,3-a]pyridin-3(2H)-one]", "pIC50": 9.25},
      {"compound": "O=C(C1CC(C(F)(F)F)Cc2nn(Cc3ccc(Cl)nc3)c(=O)n21)N1CCC(F)(F)C1", "note": "(racemic) [Example 230, (5RS,7RS)-2-[(6-Chloropyridin-3-yl)methyl]-5-[(3,3-difluoropyrrolidin-1-yl)carbonyl]-7-(trifluoromethyl)-5,6,7,8-tetrahydro[1,2,4]triazolo[4,3-a]pyridin-3(2H)-one]", "pIC50": 8.64},
      {"compound": "O=C(C1CC(C(F)(F)F)Cc2nn(Cc3ccc(C(F)(F)F)nc3)c(=O)n21)N1CC(O)C1", "note": "(racemic) [Example 233, (5RS,7RS)-5-[(3-Hydroxyazetidin-1-yl)carbonyl]-7-(trifluoromethyl)-2-{[6-(trifluoromethyl)pyridin-3-yl]methyl}-5,6,7,8-tetrahydro[1,2,4]triazolo[4,3-a]pyridin-3(2H)-one]", "pIC50": 6.69},
      {"compound": "O=C(C1CC(C(F)(F)F)Cc2nn(Cc3ccc(C(F)(F)F)nc3)c(=O)n21)N1CC[C@H](F)C1", "note": "(mixture of isomers) [Example 235, (5RS,7RS)-5-{[(3S)-3-Fluoropyrrolidin-1-yl]carbonyl}-7-(trifluoromethyl)-2-{[6-(trifluoromethyl)pyridin-3-yl]methyl}-5,6,7,8-tetrahydro[1,2,4]triazolo[4,3-a]pyridin-3(2H)-one]", "pIC50": 8.17},
      {"compound": "O=C(C1CC(C(F)(F)F)Cc2nn(Cc3ccc(C(F)(F)F)nc3)c(=O)n21)N1CC[C@H](F)C1", "note": "(mixture of isomers) [Example 236, (5RS,7RS)-5-{[(3S)-3-Fluoropyrrolidin-1-yl]carbonyl}-7-(trifluoromethyl)-2-{[6-(trifluoromethyl)pyridin-3-yl]methyl}-5,6,7,8-tetrahydro[1,2,4]triazolo[4,3-a]pyridin-3(2H)-one]", "pIC50": 8.85},
      {"compound": "O=C(C1CC(C(F)(F)F)Cc2nn(Cc3ccc(Cl)nc3)c(=O)n21)N1CC[C@H](F)C1", "note": "(mixture of isomers) [Example 241, (5RS,7RS)-2-[(6-Chloropyridin-3-yl)methyl]-5-{[(3S)-3-fluoropyrrolidin-1-yl]carbonyl}-7-(trifluoromethyl)-5,6,7,8-tetrahydro[1,2,4]triazolo[4,3-a]pyridin-3(2H)-one]", "pIC50": 8.24}
    ]}
  ]
}
